According to patent US5380715A, “Ap4 A as a hypotensive agent” (Fujirebio Inc., priority 1992, dated 1995):
Entries after “also recorded” stand apart in the source; their conditions may differ.

What was measured:
rats [1] = assay: Gradual hypotension during anesthesia in rats; format: in vivo, male SD rats; conditions: rat
Protocol: Male SD rats (Charles River Japan Inc.) were anesthetized with intravenous thiopental 50 mg/kg as a bolus, followed by 1% enflurane in air.
A femoral artery was catheterized to monitor the blood pressure and heart rate, while a femoral vein was catheterized for the administration of each of the test drugs.
(§1) The control values were obtained before the administration of each test drug. Each test drug was then administered using a syringe in a dose-dependent manner for 15 minutes. The percentage (%) of the decrease of blood pressure was determined when stabilized. Changes in heart rate (H.R.) at the administration of each test drug were measured. Furthermore,the recovery of mean blood pressure after intravenous infusion of each test drug was also determined from the decrease in heart rate and the blood pressure at a maximum dose of each test drug.

rats [2] = assay: Recovery of blood pressure after gradual hypotension in rats; format: in vivo, male SD rats; conditions: rat
Protocol: FIG. 1 is a graph showing the recovery of the blood pressure of rats anesthetized with enflurane with time, when each of Ap4A ( ), PG E1 ( ) and nitroglycerin ( ) was used as a test drug to attain gradual hypotension, with the blood pressure before the administration of each test drug being set 100% for reference.
The recovery of blood pressure after gradual hypotension by use of each of Ap4A, PG E1 and nitroglycerin was also tested.
as §1
In a test similar to the above, each of Ap4A, PG E1, and nitroglycerin was administered to rats, so that about 65% fall in blood pressure, about 55% fall in blood pressure, and about 35% fall in blood pressure were stepwise attained. With respect to each agent, the recovery of blood pressure was tested.

isolated rat heart = assay: Protective effect on deoxygenation-induced cardiac damage (Langendorff heart); parameters: species or system male SD rats; conditions: 1×10^-4 M, 33 min global ischemia; words
Protocol: The protective effect of Ap4A against ischemia by use of a Langendorff heart (Aronson, CE. and Serlick, ER. Toxicol. Appl. Pharmac. 38, 479-488 (1976)) was tested.
Deoxygenation-induced cardiac damage according to the method of Aronson & Serlich (Toxical. appl. Parmac. 38, 479-488, 1976) with slight modifications. Male SD rats (Charles River Japan Inc.) weighing 320 to 390 g were anesthetized with ether, and heart quickly isolated. The isolated rat heart was mounted and perfused with Krebs-Henselite solution (118 mM NaCl, 4.7 mM KCl, 2.5 mM CaCl2, 1.2 mM MgSO4, 1.2 mM KH2 PO4, 25 mM NaHCO3 and 10 mM glucose) bubbled with 95% O2 +5% CO2 at a flow rates of 14 ml/min. at 37° C. The myocardial function was monitored by the left ventricular pressure (L.V.P.), differential values of L.V.P. (dp/dt), heart rate (H.R.) and perfused pressure (P.P.) through a branch of an aortic canula mounted on the heart. After equilibrate for 40 min., global ischemia was produced by stopping the perfusing solution and the heart was incubated for 33 min. in 50 ml Krebs-Henselite bubble with N2 gas (control). 33 min. later, the buffer solution was removed. The perfusion was re-started, and the myocardial function was measured. The heart was incubated in Krebs-Henselite solution containing Ap4A 1×10^-4 M during global ischemia.

rabbit erythrocytes = assay: Inhibitory effect on rabbit erythrocyte crenation induced by A23187; format: cell-based; conditions: for Crenation: x ± SE; for inhibition of A23187-induced erythrocyte crenation: result in words
Protocol: Fresh blood was collected from Japanese white rabbits weighing 2-3 kg. Blood samples were anticoagulated with citric acid (1 ml 3.8% Citric acid solution+10 ml blood). These samples were centrifuged at room temperature for 15 min at 1100 rpm. After centrifugation of the defibrinated blood, the upper cell layers were discarded. The erythrocytes (pellet) were washed 4 times in a medium containing; 56.6 mM Tris-HCl, pH 7.6, 100 mM NaCl, 4.6 mM KCl,0.64 mM MgCl2. The erythrocytes were preincubated with saline solution or Ap4 A at 37° C for 10min and then A23187 1×10^-6 M and CaCl2 5×10^-7 M were added to the Mixture. After incubation at 37° C. for 20 min, the reaction mixture was centrifugated at 1000 rpm for 10 min. The precipitation was fixed by addition of 0.1M cacodylate buffer containing 0.22M sucrose. The number of transforming erythrocytes was counted using a microscope.

[3] = test system: human platelet-aggregation; conditions: words; cited from earlier work
[4] = test system: rabbit mesenteric arteries; conditions: words; cited from earlier work
[5] = words; cited from earlier work
[6] = enflurane, infusion 1 μg/kg/min
[7] = enflurane, infusion 3 μg/kg/min
[8] = enflurane, infusion 10 μg/kg/min
[9] = enflurane, infusion 30 μg/kg/min
[10] = enflurane, infusion 100 μg/kg/min
[11] = enflurane, infusion 300 μg/kg/min
[12] = enflurane, infusion 1000 μg/kg/min
[13] = enflurane, infusion 3000 μg/kg/min

Nc1ncnc2c1ncn2[C@@H]1O[C@H](COP(=O)(O)OP(=O)(O)OP(=O)(O)OP(=O)(O)OC[C@H]2O[C@@H](n3cnc4c(N)ncnc43)[C@H](O)[C@@H]2O)[C@@H](O)[C@H]1O [Ap4A, diadenosine 5',5'"-p^1,p^4 -tetraphosphate]
administration that gradually decreased blood pressure (rats [1]; enflurane): ≥ 10 µg/kg/min | fall in blood pressure (rats [1]; enflurane, 300 μg/kg/min): about 40% | fall in blood pressure (rats [1]; enflurane, 1000 μg/kg/min or more): ≥ 60% | Blood Pressure (Δ%) (rats [1]; [6]): 0% | Heart Rate (Δ%) (rats [1]; [6]): 0% | Blood Pressure (Δ%) (rats [1]; [7]): 0% | Heart Rate (Δ%) (rats [1]; [7]): 0% | Blood Pressure (Δ%) (rats [1]; [8]): -4.7 ± 0.6% | Heart Rate (Δ%) (rats [1]; [8]): 1.3 ± 0.6% | Blood Pressure (Δ%) (rats [1]; [9]): -10.2 ± 1.1% | Heart Rate (Δ%) (rats [1]; [9]): 2.7 ± 0.8% | Blood Pressure (Δ%) (rats [1]; [10]): -22.9 ± 1.2% | Heart Rate (Δ%) (rats [1]; [10]): 2.4 ± 1.0% | Blood Pressure (Δ%) (rats [1]; [11]): -43.5 ± 2.2% | Heart Rate (Δ%) (rats [1]; [11]): -6.6 ± 1.2% | Blood Pressure (Δ%) (rats [1]; [12]): -58.6 ± 1.8% | Heart Rate (Δ%) (rats [1]; [12]): -15.9 ± 1.9% | Blood Pressure (Δ%) (rats [1]; [13]): -65.8 ± 1.2% | Heart Rate (Δ%) (rats [1]; [13]): -24.9 ± 2.4% | decrease of heart rate (rats [1]; enflurane, result in words): A significant decrease of heart rate was observed at about 60% fall in blood pressure | stability of hypotensive effect at each dose (rats [1]; result in words): did not significantly change the blood pressure attained by each dose | recovered blood pressure (before administration = 100%) (rats [2]; 1 minute): about 70% | recovered blood pressure (before administration = 100%) (rats [2]; 5 minutes): about 90% | recovered blood pressure (before administration = 100%) (rats [2]; 10 minutes): 100% | fall in blood pressure attained before recovery (rats [2]; stepwise): about 65% | rapidness of the recovery of blood pressure (rats [2]; order in words): Ap4A>PG E1 >nitroglycerin | rebound hypertension (rats [2]; result in words): without rebound hypertension | prevention of cardiac damage (loss of L.V.P., dp/dt and H.R.) (isolated rat heart): significantly prevented cardiac damage (loss of L.V.P., dp/dt and H.R.) induced by deoxygenation; also recorded: the above-mentioned impairment in the untreated Langendorff heart was found to be prevented | Crenation (rabbit erythrocytes; 10^-3 M, P < 0.01 vs control): 19.2 ± 9.1% | Crenation (rabbit erythrocytes; 10^-4 M, P < 0.05 vs control): 37.0 ± 6.4% | Crenation (rabbit erythrocytes; 10^-5 M): 49.1 ± 3.9% | inhibition at 1000 µM (rabbit erythrocytes; Oryctolagus cuniculus, Erythrocyte, 10^-3 M): 66.1% | inhibition at 100 µM (rabbit erythrocytes; Oryctolagus cuniculus, Erythrocyte, 10^-4 M): 34.6% | inhibition at 10 µM (rabbit erythrocytes; Oryctolagus cuniculus, Erythrocyte, 10^-5 M): 13.3% | IC50 (rabbit erythrocytes; Oryctolagus cuniculus, Erythrocyte, A23187-induced crenation): 300 µM | inhibition of A23187-induced erythrocyte crenation (rabbit erythrocytes): significant inhibitory effect | inhibition of A23187-induced erythrocyte crenation (rabbit erythrocytes; listed as Ap4 A): A23187-induced rabbit erythrocyte crenation was inhibited | ADP-induced human platelet-aggregation inhibitory effect [3]: ADP-induced human platelet-aggregation inhibitory effect | vasodilating effect [4]: a vasodilating effect of rabbit mesenteric arteries | arrhythmic effect [5]: an arrhythmic effect
